The values below come from article PMC12645437, “Orthogonal IMiD-Degron Pairs Induce Selective Protein Degradation in Cells” (ACS Chemical Biology, 2025).

The target of data set [1] is T1, HA-CDK9-WEIS (Homo sapiens, UniProt Q96SW2+Q9UKT9, N149E/Q147W/Q150I).
T1 construct: IKZF3 130aa-142aa 170-189aa fused to EGFP; CDK9 (protein of interest, fusion partner N-terminal of the degron); expressed in transfected cells; host or cells: HEK293T, lentivirally transduced (Cilantro2-derived plasmid, Addgene #74450, EGFP replaced by HA-POI-WEIS)
Description: HA antibody immunoblotting in HEK293T cells. Type of data set: cell-based. The following applies: 18 h, Western blot. On the technique in general: A western blot detects proteins with antibodies after separation by electrophoresis.

Data set [2] has as its target T2, TRIM28 with N-terminal WEIS degron tag and HiBit tag (Homo sapiens, UniProt Q96SW2+Q9UKT9, N149E/Q147W/Q150I).
T2 construct: pLVX-Sprout-IKZF3 130-189aa Q147W N149E Q150I (WEIS); TRIM28 (fusion partner / protein of interest, gene TRIM28, human entry Q13263 by my knowledge); expressed in transfected cells; host or cells: Jurkat, lentiviral transduction; endogenous TRIM28 knocked out by CRISPR
Put plainly: HiBiT luminescence degradation assay. In kind it is cell-based. The following applies: Jurkat, 24 h. (In general: HiBiT is a short tag that completes a luciferase, so light tracks the accessible tagged protein.)

Data set [3] has as its target WNQS mutant ZF degron fused to EGFP (Homo sapiens, UniProt Q96SW2+Q9UKT9, Q147W). Description: Ratiometric EGFP:mCherry flow cytometry degradation assay, 18 h.
In data set [4] the test system is embryonic stem cells (ESCs). Put plainly: TMTpro quantitative proteomics, 16 h. As to conditions: 10 μM.
Description: Quantitative proteomics screens were carried out in untransduced Jurkat cells, embryonic stem cells (ESCs), and the multiple myeloma cell line, MM.1S. We used Jurkat cells, as our work up to this point had employed this cell line, and we selected ESCs and MM.1S cells as they express known CRBN neosubstrates, including IKZF1, IKZF3, RAB28, RNF166, SALL4, ZFP91, and ZNF827.
Proteomics - cell lysis and protein digestion
The viability of Jurkat cells was tested after 16-h treatment with corresponding chemicals
viable cells in each condition. Next, ~10^7 cells per condition were collected by centrifugation (1000 rpm), washed twice with ice-cold PBS, and lysed in RIPA buffer [50 mM HEPES pH 7.4, 150 mM NaCl, 1% sodium deoxycholate, 1% NP-40, 0.1% SDS, 10 mM sodium pyrophosphate, 10 mM β-glycerophosphate, 2.5 mM MgCl2, 200 µM TCEP, phosphatase and protease inhibitor cocktail (in-house)], to produce whole cell extracts. Whole-cell extracts were sonicated, and protein concentrations were determined using the Bradford assay. Protein extracts (100 µg) were subjected to disulfide bond reduction with 5 mM TCEP (10 min) and alkylation with 25 mM chloroacetamide (20 min). Methanol–chloroform precipitation was performed prior to protease digestion. […]
The target in data set [5] is T3, WEIS-EGFP degron in Jurkat cells (Homo sapiens, UniProt Q96SW2+Q9UKT9, N149E/Q147W/Q150I).
T3 construct: pLVX-Sprout-IKZF3 130-189aa Q147W N149E Q150I (WEIS); expressed in transfected cells
Put plainly: GFP degradation flow cytometry assay with proteasome inhibitor carfilzomib. Type of data set: cell-based. As to conditions: carfilzomib (1 μM) pre-incubation; 1-24 h. (In flow cytometry, cells or beads pass a laser one at a time.)

The target of data set [6] is WEIS mutant ZF degron fused to EGFP (Homo sapiens, UniProt Q96SW2+Q9UKT9, N149E/Q147W/Q150I). Put plainly: Ratiometric EGFP:mCherry flow cytometry degradation assay, 18 h.
Data set [7] deals with T4, HA-NanoLuc-WEIS (Homo sapiens, UniProt Q96SW2+Q9UKT9, N149E/Q147W/Q150I).
T4 construct: pLVX-Sprout-IKZF3 130-189aa Q147W N149E Q150I (WEIS); expressed in transfected cells; host or cells: HEK293T, lentiviral transduction, puromycin-selected
Description: HA antibody immunoblotting in HEK293T cells. As to conditions: 18 h, Western blot. Type of data set: cell-based.

Data set [8] relates to Jurkat cells (TRIM28-transduced and untransduced). Description: CellTiter-Glo cell viability assay. The following applies: 100 pM – 10 μM, 24 h. In kind it is cell-based, human. As for the experimental part:
Figure S22. CellTiter-Glo assay to assess cell viability of Jurkat cells lentivirally transduced with TRIM28 with either N-terminal or C-terminal WEIS degron tag (or untagged control) and HiBit peptide tag, then incubated (alongside untransduced Jurkat cells) with a concentration curve of […]
(1 picture or pasted object on this page, not shown here) […]
mixed with the Cas9 RNPs and then electroporated using a 4D-Nucleofector (Lonza) on pulse code CL-120. Estimation of knockout efficiency was performed by PCR amplification of the sgRNA target site using primers described in ‘PCR primers for amplifying sgRNA target site’ below. PCR products were Sanger sequenced and editing efficiency was assessed using the online […]
HiBit and CellTiter-Glo® (CTG) Assays […]
spanning 169 pM–10 μM (final assay concentration). […]
HiBit signal was measured by adding 25 µL of the lytic detection reagent from the Nano-Glo® HiBiT Extracellular Detection System (Promega), prepared as per manufacturer protocol. […] Both assays were read using PHERAstar microplate luminescence reader (BMG Labtech). The data have been expressed as % of DMSO control and represent three independent biological replicates. […]
signal was measured by adding 40 µL of the Nano-Glo lytic detection reagent (Promega),

In data set [9] the target is T5, ZF-EGFP fusion protein with the HEIP, AEVK, WEIS, or WT ZF degron (Homo sapiens, UniProt Q9UKT9, N149E/Q147W/Q150I).
T5 construct: The degron spans residues 130–189 of IKZF3; expressed in transfected cells; host or cells: Jurkat, lentivirally transduced, presorted mCherry+
Put plainly: Western blot for ZF-EGFP fusion protein. Type of data set: cell-based. As to conditions: transduced Jurkat, 18 h.

Data set [10] addresses AEVK mutant ZF degron fused to EGFP (Homo sapiens, UniProt Q96SW2+Q9UKT9, N149E/Q147A/Q150V/S154K). Put plainly: Ratiometric EGFP:mCherry flow cytometry degradation assay, 18 h.
Data set [11] addresses WEIK mutant ZF degron fused to EGFP (Homo sapiens, UniProt Q96SW2+Q9UKT9, N149E/Q147W/Q150I/S154K). Described as above.
Data set [12] deals with FEVP mutant ZF degron fused to EGFP (Homo sapiens, UniProt Q96SW2+Q9UKT9, N149E/Q147F/Q150V/S154P). Described as above.
Data set [13] concerns the target T6, ZF-EGFP fusion protein with the HEIP, AEVK, WEIS, or WT ZF degron (Homo sapiens, UniProt Q9UKT9, N149E/Q147A/Q150V/S154K).
T6 construct: The degron spans residues 130–189 of IKZF3; expressed in transfected cells; host or cells: Jurkat, lentivirally transduced, presorted mCherry+
Put plainly: Western blot for ZF-EGFP fusion protein. In kind it is cell-based. The following applies: transduced Jurkat, 18 h.

The target in data set [14] is T7, ZF-EGFP fusion protein with the HEIP, AEVK, WEIS, or WT ZF degron (Homo sapiens, UniProt Q9UKT9, N149E/Q147H/Q150I/S154P).
T7 construct: The degron spans residues 130–189 of IKZF3; expressed in transfected cells; host or cells: Jurkat, lentivirally transduced, presorted mCherry+
Put plainly: Western blot for ZF-EGFP fusion protein. Type of data set: cell-based. The following applies: transduced Jurkat, 18 h.

Chain of FEVP mutant ZF degron fused to EGFP (Q9UKT9 130-189 Q147F/N149E/Q150V/S154P): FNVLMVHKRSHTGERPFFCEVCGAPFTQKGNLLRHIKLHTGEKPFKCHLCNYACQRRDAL
Chain of FEVP mutant ZF degron fused to EGFP (Q96SW2 whole entry, the tested form may be a part): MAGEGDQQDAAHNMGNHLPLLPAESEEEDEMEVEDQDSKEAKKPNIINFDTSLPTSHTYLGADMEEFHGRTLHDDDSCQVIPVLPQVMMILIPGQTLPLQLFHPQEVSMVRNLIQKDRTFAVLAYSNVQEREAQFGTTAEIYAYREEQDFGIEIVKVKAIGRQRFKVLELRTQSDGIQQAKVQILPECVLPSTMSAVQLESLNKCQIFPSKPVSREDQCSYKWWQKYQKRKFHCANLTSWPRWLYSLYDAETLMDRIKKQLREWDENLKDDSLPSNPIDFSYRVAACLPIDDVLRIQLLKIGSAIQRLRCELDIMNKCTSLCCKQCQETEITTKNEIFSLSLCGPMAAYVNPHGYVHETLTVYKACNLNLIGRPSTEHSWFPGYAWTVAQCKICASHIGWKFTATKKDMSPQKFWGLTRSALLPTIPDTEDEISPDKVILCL
Chain of FEVP mutant ZF degron fused to EGFP (Q16531 whole entry partner, the tested form may be a part): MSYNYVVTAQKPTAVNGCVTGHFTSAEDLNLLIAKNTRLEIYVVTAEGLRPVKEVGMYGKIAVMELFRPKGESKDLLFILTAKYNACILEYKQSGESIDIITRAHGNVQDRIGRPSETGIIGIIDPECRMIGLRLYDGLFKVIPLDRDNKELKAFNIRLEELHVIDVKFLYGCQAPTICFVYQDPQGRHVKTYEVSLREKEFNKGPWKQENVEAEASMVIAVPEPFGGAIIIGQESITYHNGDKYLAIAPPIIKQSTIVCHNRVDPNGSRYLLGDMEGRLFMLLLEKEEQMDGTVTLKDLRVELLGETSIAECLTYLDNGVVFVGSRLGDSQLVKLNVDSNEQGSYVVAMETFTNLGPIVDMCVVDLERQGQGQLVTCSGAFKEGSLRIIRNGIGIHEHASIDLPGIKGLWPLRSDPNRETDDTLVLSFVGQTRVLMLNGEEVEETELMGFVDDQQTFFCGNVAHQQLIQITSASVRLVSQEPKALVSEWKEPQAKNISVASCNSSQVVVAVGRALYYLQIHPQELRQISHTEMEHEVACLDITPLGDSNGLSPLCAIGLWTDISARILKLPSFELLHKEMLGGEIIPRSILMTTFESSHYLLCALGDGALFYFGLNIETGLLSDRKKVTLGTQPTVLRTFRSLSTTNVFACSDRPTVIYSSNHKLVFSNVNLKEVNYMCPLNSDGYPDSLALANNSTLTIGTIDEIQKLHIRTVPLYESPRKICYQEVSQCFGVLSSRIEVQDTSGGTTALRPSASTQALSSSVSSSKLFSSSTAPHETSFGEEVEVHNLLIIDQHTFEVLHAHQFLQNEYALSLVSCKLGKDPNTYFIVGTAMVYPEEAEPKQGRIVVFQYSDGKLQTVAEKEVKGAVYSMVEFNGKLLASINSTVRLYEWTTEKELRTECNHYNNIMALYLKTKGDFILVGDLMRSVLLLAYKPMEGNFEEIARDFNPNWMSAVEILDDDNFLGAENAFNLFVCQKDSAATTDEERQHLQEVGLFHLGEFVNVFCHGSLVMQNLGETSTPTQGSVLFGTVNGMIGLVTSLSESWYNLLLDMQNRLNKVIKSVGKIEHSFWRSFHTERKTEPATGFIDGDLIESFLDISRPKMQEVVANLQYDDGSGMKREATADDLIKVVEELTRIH
Chain of WNQS mutant ZF degron fused to EGFP (Q9UKT9 130-189 Q147W): as the sequence (Q9UKT9 130-189 Q147F/N149E/Q150V/S154P) above, with F18W, E20N, V21Q, P25S counted along it
Chain of WNQS mutant ZF degron fused to EGFP (Q96SW2 whole entry, the tested form may be a part): as the sequence (Q96SW2 whole entry, the tested form may be a part) above
Chain of WNQS mutant ZF degron fused to EGFP (Q16531 whole entry partner, the tested form may be a part): as the sequence (Q16531 whole entry partner, the tested form may be a part) above
Chain of AEVK mutant ZF degron fused to EGFP (Q9UKT9 130-189 Q147A/N149E/Q150V/S154K): as the sequence (Q9UKT9 130-189 Q147F/N149E/Q150V/S154P) above, with F18A, P25K counted along it
Chain of AEVK mutant ZF degron fused to EGFP (Q96SW2 whole entry, the tested form may be a part): as the sequence (Q96SW2 whole entry, the tested form may be a part) above
Chain of AEVK mutant ZF degron fused to EGFP (Q16531 whole entry partner, the tested form may be a part): as the sequence (Q16531 whole entry partner, the tested form may be a part) above

In the case of `CN1CCN(c2ccc3c(c2)C(=O)N(C2CCC(=O)NC2=O)C3=O)CC1` (stereo not drawn) [Compound 23], the D max in [1] turned out to be 70%; in data set [2], 66%; in data set [7], 89%. Also, the DC50 in data set [1] turned out to be 299 nM; in data set [2], 1270 nM; in [3] (WNQS, Jurkat, 18 h), 126 nM; in data set [6] (WEIS, Jurkat, 18 h) it was 18.2 nM; in [7], 47.8 nM. Besides, the “Selectivity (WT/mutant)” value in [3] (DC50(WT)/DC50(WNQS)) turned out to be 5; in [6] (DC50(WT)/DC50(WEIS)) it was 35. Also, the pDC50 was determined as 6.90 in data set [3] (WNQS, Jurkat, 18 h) and 7.74 in data set [6] (WEIS, Jurkat, 18 h). Also, the “proteins degraded (quantitative proteomics)” value in [4] is recorded as “did not induce any protein degradation”. In addition, the “WEIS-EGFP degradation with carfilzomib” value in data set [5] is recorded as “rescued”. Further, in data set [8], the cell viability entry is reported as “did not affect the cell viability”. Besides, the “degradation of EGFP tagged with WEIS degron (Western blot)” value in [9] is recorded as “complete degradation”.

On to `CC(C)(C)c1ccc2c(c1)C(=O)N(C1CCC(=O)NC1=O)C2=O` (stereo not drawn) [Compound 19], for which the DC50 in data set [10] (AEVK, Jurkat, 18 h) was found to be 27.5 nM; in [11] (WEIK, Jurkat, 18 h), 42 nM; in data set [12] (FEVP, Jurkat, 18 h), 50.1 nM. For the same compound, the pDC50 in data set [10] (AEVK, Jurkat, 18 h) came out at 7.56; in data set [11] (WEIK, Jurkat, 18 h) it was 7.38; in data set [12] (FEVP, Jurkat, 18 h) it was 7.30. For the same compound, the “Selectivity (WT/mutant)” value in data set [10] (DC50(WT)/DC50(AEVK)) is given as 28; in data set [11] (DC50(WT)/DC50(WEIK)), 18.1; in data set [12] (DC50(WT)/DC50(FEVP)), 15.1. Moreover, the “degradation of EGFP tagged with AEVK degron (Western blot)” value in data set [13] is “complete degradation”. In data set [14], the “degradation of EGFP tagged with HEIP degron (Western blot)” value is on record as “complete degradation”.
